Structures can show the parent of a compound that is named as a salt.
Target: BioA (Mycobacterium tuberculosis, UniProt P9WQ81)
Test: continuous coupled fluorescence enzyme assay
Assay type: biochemical

Chain of BioA (P9WQ81 whole entry): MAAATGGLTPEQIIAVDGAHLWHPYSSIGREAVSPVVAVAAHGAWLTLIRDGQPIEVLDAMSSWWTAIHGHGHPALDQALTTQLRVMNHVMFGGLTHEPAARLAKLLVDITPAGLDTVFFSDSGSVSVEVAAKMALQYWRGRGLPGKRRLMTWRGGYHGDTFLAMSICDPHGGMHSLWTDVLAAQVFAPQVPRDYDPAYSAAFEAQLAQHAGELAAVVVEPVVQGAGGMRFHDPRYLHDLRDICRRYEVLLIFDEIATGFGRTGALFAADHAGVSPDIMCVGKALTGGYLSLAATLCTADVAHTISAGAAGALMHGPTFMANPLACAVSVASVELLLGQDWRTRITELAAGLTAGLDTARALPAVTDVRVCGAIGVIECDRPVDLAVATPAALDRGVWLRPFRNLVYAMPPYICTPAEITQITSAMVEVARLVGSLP

`N[C@H]1C=C[C@@H](CCCO)C1` (racemic) [M-2, (±)-cis-3-(-4-Aminocyclopent-2-enyl)propan-1-ol hydrochloride salt] gave an IC50 of 57 ± 1.9 µM.
